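Results reflect a 48-hour exposure of cells in 96-well plates to compound at five concentrations. GI50 is the concentration that inhibits growth by half.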 The source made the active and inactive calls. Cut-off read from the data, not from the text of the source: active = GI50 up to about 1.1 µM and inactive = higher.
Key:
Test in all cases: inhibition of tumour cell growth, NCI panel, 48 h
[1] = tested on: ACHN
[2] = tested on: CCRF-CEM
[3] = tested on: COLO 205
[4] = tested on: DMS-114
[5] = tested on: DMS-273
[6] = tested on: HCC 2998
[7] = tested on: HL-60
[8] = tested on: HT-29
[9] = tested on: K562
[10] = tested on: KM-20L2
[11] = tested on: LXFL 529
[12] = tested on: MOLT-4
[13] = tested on: Malme-3M
[14] = tested on: NCI-H23
[15] = tested on: OVCAR-8
[16] = tested on: RPMI-8226
[17] = tested on: RXF 393
[18] = tested on: SK-MEL-2
[19] = tested on: SW-620
[20] = tested on: UACC-62

Measured: GI50

COc1ccc(/C(Cl)=C(\C=O)c2ccc(Cl)cc2)cc1OC
inactive: [1] 3.18 µM | [2] 2.98 µM | [3] 3.77 µM | [4] 4.47 µM | [5] 3.72 µM | [6] 14.9 µM | [7] 2.55 µM | [8] 4.97 µM | [9] 3.69 µM | [10] 7.62 µM | [11] 7.28 µM | [12] 2.12 µM | [13] 34.9 µM | [14] 3.01 µM | [15] 4.03 µM | [16] 3.32 µM | [17] 6.01 µM | [18] 3.71 µM | [19] 3.75 µM | [20] 5.97 µM

Cn1nc2ccc3nccc(NCCNCCCl)c3c2n1
inactive: [1] > 100 µM | [2] > 100 µM | [3] > 100 µM | [4] > 100 µM | [5] > 100 µM | [6] > 100 µM | [7] > 100 µM | [8] > 100 µM | [9] > 100 µM | [10] > 100 µM | [11] > 100 µM | [12] > 100 µM | [13] > 100 µM | [15] > 100 µM | [16] > 100 µM | [17] > 100 µM | [18] > 100 µM | [19] > 100 µM | [20] > 100 µM

CN(Cc1cnc2c(N)nc(N)nc2n1)c1ccc(Cl)cc1
inactive: [1] 26.6 µM | [2] > 100 µM | [3] > 100 µM | [7] > 100 µM | [9] > 100 µM | [12] > 100 µM | [13] > 100 µM | [14] 34 µM | [15] 21.5 µM | [16] > 100 µM | [17] 17 µM | [18] 29 µM | [19] > 100 µM | [20] 24.4 µM
